# Assay results: ChEMBL document CHEMBL5463728, “Data for DCP probe BAY-6096” (2023); call rule not given here
# Columns and labels:
# [1] = target: Alpha-1D adrenergic receptor (Homo sapiens, UniProt P25100); test: Adrenoceptor reporter cell assay (ADRA1D); format: functional
# [2] = target: Alpha-1B adrenergic receptor (Homo sapiens, UniProt P35368); test: Adrenoceptor reporter cell assay (ADRA1B); format: functional
# [3] = target: T1, Muscarinic acetylcholine receptor M4 (Homo sapiens) (UniProt P08173); conditions: Compound concentration 10.0 uM
# T1 sequence (whole entry): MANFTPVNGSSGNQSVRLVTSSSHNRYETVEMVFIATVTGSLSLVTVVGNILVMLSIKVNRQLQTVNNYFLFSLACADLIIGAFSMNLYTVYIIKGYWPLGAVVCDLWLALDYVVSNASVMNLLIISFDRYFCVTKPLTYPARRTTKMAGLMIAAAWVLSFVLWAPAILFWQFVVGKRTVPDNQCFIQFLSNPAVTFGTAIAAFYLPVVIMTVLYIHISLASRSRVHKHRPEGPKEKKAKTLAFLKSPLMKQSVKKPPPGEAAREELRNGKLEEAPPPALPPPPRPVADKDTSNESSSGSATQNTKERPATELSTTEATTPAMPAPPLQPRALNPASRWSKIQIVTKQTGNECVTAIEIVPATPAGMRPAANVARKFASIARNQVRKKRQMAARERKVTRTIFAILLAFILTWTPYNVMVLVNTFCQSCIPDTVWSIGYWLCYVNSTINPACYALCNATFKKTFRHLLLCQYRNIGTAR
# [4] = target: D(3) dopamine receptor (Homo sapiens) (UniProt P35462); conditions: Compound concentration 10.0 uM
# Sequence of D(3) dopamine receptor (Homo sapiens) (P35462 whole entry): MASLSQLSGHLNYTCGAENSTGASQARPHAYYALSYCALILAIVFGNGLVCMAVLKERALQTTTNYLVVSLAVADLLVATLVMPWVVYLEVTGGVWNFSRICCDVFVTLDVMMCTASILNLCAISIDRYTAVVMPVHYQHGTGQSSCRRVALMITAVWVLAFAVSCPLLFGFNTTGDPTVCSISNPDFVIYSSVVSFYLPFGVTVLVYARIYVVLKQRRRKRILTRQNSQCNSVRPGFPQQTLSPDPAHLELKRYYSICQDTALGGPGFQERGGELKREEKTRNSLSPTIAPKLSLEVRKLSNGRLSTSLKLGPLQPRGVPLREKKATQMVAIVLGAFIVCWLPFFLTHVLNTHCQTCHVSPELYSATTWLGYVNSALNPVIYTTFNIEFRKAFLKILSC
# Sequence of Alpha-1D adrenergic receptor (P25100 whole entry): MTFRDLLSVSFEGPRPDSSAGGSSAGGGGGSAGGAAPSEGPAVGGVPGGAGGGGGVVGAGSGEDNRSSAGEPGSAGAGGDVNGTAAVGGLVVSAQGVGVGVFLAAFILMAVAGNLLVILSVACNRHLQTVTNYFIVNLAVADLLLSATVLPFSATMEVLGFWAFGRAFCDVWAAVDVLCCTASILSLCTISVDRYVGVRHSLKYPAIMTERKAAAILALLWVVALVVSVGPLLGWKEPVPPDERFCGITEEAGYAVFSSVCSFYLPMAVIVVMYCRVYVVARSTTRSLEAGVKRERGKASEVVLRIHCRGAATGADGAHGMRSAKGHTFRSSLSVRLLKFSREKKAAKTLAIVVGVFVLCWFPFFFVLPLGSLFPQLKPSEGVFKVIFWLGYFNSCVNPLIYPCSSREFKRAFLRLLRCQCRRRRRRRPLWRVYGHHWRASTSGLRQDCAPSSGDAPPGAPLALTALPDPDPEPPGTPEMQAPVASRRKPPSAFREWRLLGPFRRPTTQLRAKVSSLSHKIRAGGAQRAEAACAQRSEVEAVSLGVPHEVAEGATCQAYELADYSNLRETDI
# Sequence of Alpha-1B adrenergic receptor (P35368 whole entry): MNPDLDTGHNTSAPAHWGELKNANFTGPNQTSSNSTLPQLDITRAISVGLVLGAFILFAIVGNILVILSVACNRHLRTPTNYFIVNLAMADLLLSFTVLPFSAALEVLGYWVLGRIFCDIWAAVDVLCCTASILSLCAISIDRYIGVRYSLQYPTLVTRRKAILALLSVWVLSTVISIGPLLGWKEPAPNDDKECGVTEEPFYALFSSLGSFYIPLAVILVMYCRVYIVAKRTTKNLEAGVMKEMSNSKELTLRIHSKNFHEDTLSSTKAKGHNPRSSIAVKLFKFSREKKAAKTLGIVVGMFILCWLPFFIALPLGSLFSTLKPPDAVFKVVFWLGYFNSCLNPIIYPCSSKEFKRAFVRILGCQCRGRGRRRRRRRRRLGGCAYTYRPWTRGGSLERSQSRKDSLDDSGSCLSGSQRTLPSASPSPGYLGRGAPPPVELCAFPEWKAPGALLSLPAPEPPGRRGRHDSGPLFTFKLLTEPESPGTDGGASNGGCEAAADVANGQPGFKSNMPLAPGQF
compound,measurement,setting,value
CNc1cc[n+](CCNC(=O)c2ccn3c(-c4c(C)noc4C)cnc3c2)cc1,IC50,[1],> 10 µM (not active)
same,IC50,[2],> 10 µM (not active)
same,inhibition,[3],3.5%
same,inhibition,[4],-4.7%
